Patent US4839350A, “Cephalosporin compounds and the production thereof” (Meiji Seika Kaisha, Ltd., priority 1984, dated 1989)

Assay: Recovery in urine after oral administration to mice (paper-disc assay)
Format: in vivo, mice of ICR-strain (male)
Details: 0.5 mg per mouse, suspension in 0.2% CMC, urine to 4 hours, molar % as free carboxylic acid form, average of three mice, E. coli K-12 8236 bioassay, read-out: Rate of recovery of the test compound in urine
From the text: The new cephalosporin compound of this invention as orally administered is easily absorbed through the intestines by a living animal and maintains its antibacterial activity to a substantial extent in the body of the animal until it is excreted in the urine of the animal, and this may be observed by determining the remaining amount of the cephalosporin compound of this invention which can be recovered in the urine without receiving a substantial degradation of the compound in vivo. Some tests were made to evaluate the amount of the cephalosporin compound of this invention which can be recovered as the antibacterially active compound from the urine after it was orally given to mice.
To mice of ICR-strain (male, 4-weeks-aged, three in each group) was orally administered the compound under test identified below, at a dosage of the compound of 0.5 mg per mouse. The compound under test was given as a suspension of the test compound in a solution of 0.2% carboxymethylcellulose (CMC) in water. By the end of 4 hours after the administration of the test compound, all the amounts of the urine excreted by the treated mice were collected together, and the total quantity of the cephalosporin compound of this invention (as the free carboxylic acid form) in the urine was determined according to a paper-disc assay method using Escherichia coli K-12 8236 as the assaying strain. […]

| dose excreted at 4 h | SMILES |
| --- | --- |
| 24% | CO/N=C(\C(=O)NC1C(=O)N2C(C(=O)OCOC(=O)C(C)(C)C)=C(/C=C\c3scnc3Cl)CSC12)c1csc(N)n1 (stereo not drawn) [Example 22, 7-[2-methoxyimino-2-(2-aminothiazol-4-yl)acetamido]-3-[2-(4-chlorothiazol-5-yl)vinyl]-3-cephem-4-carboxylic acid (syn-isomer, cis-isomer) pivaloyloxymethyl ester] |
| 20% | CO/N=C(\C(=O)NC1C(=O)N2C(C(=O)OCOC(=O)C(C)(C)C)=C(/C=C\c3cncs3)CSC12)c1csc(N)n1 (stereo not drawn) [Example 38, 7-[2-methoxyimino-2-(2-aminothiazol-4-yl)acetamido]-3-[2-(thiazol-5-yl)vinyl]-3-cephem-4-carboxylic acid (syn-isomer, cis-isomer) pivaloyloxymethyl ester] |
